# From patent US20080008707A1, “Denatured collagen peptides and uses thereof” (Cell-Matrix, Inc., priority 2006, published 2008)
# Square brackets hold non-standard residues; d marks the D form. Ends that are not written are not given here. Hyp = O=C(O)[C@@H]1C[C@@H](O)CN1
# How the values were obtained:
# [1] = test system: HUI77 binding to denatured collagen IV; assay: Competition ELISA: synthetic peptides blocking HUI77 binding to heat denatured collagen IV; set-up: species or system human; settings: average of two studies
# Method: (§1) The ELISA was conducted as follows: wells of a 96-well microtiter plate (Immulon, 4 HBX flat-bottomed, Thermo Electron Corporation, Waltham, Mass.) were coated with 100 μL/well of dn-collagen IV at 10 μg/mL in Phosphate Buffered Saline (PBS) overnight at 4° C. The plate was washed 3 times (3×) with PBS containing 0.05% (v/v) Tween-20 (PBST) using an automated plate washer.
# (§2) The plate was blocked by adding 300 μL/well of 1% BSA (w/v) in PBS for 1 hour at 25° C. followed by washing 3× in PBST as above.
# (§3) Solutions of D93 or HUI77 were prepared with various concentrations of peptide or antibody inhibitor and incubate for 15 minutes. D93 or HUI77 was prepared at 200 ng/mL in 1% BSA/PBS.
# (§4) For antibody blocking studies using synthetic peptides: peptide inhibitor stock solutions were prepared at 2 mM, 0.2 mM, 0.02 mM, and 0.002 mM in 1% BSA/PBS. 500 μL of a 2 mM peptide solution in 1% BSA/PBS was prepared and diluted 1:10 in 500 μL a total of three times to make peptide inhibitor concentrations.
# (§5) 200 μL of D93 or HUI77 at 200 ng/mL solution was combined with 200 μL of peptide or antibody inhibitor solution and incubated for 15 minutes at room temperature.
# (§6) D93 or HUI77 with various concentrations of inhibitors (2 mM, 0.2 mM, 0.02 mM, and 0.002 mM) were added to microplate wells and incubated for 1 hour at 25° C. The plate was washed 3× in PBST as above.
# (§7) To each microtiter plate well, 100 μL of diluted anti-human IgG or anti-mouse IgM conjugated to horseradish peroxidase (HRP) in PBST was added and incubated for one hour at 25° C.: (a) for D93: Goat anti-human IgG-HRP (Jackson ImmunoResearch, Catalog No. 109-035-088) was used at 1:20,000 and (b) for HUI77: Goat anti-mouse IgM-HRP was used at 1:4,000. Plates were washed 3× in PBST as above.
# (§8) Tetramethylbenzidine (TMB) substrate (100 μL; Pierce Chemicals)) was added to wells and the plates were allowed to develop at room temperature for 15 minutes in the dark. Substrate development was stopped by adding 50 μL/well of 2N H2SO4. The microtiter […] plates were read at 450 nm within five minutes of adding the H2SO4. Reactivity was measured with a microplate reader (Molecular Devices, Sunnyvale, Calif.) at a wavelength of 450 nm and analyzed using SOFTMax® PRO4.0 (Molecular Devices). All samples were tested in triplicate.
# (§9) Individual peptides with amino acid substitutions and deletions were also synthesized based on the primary and secondary peptide arrays. […] The inhibitory activity of the individual peptides was tested by ELISA as previously described to measure binding of D93 or HUI77 to denatured collagen where peptides and antibodies were prepared at a 2× concentration and pre-incubated for 15 minutes prior to adding to microtiter plates coated with dn-collagen.
# (§10) 96-well plates were coated with 100 μL/well of denatured (dn) collagen IV at 10 μg/mL in phosphate buffered saline (PBS) overnight at 4° C. followed by washing the plates in an automated plate washer 3 times in PBS containing 0.05% (v/v) Tween-20 (PBST). Non-specific binding was prevented by blocking the wells by adding 300 μL/well of 1% bovine serum albumin (BSA) (w/v) in PBS for 1 hour (hr) at 25° C. The plates were washed as above.
# (§11) Solutions of D93 and HUI77 antibodies were prepared with various concentrations of inhibitor and incubated for 15 minutes. Briefly, 20 mLs of D93 or HUI77 were prepared at 200 ng/mL in 1% BSA/PBS. Solutions of peptide inhibitors (2 mM, 0.2 mM, […]) were prepared in 1% BSA/PBS. Equal volumes of antibodies and peptide inhibitors were combined: 200 μL of D93 or HUI77 (200 ng/mL solution) with 200 μL of each peptide solution.
# (§12) 100 μL/well of D93 or HUI77 at 100 ng/mL with various concentrations of inhibitors were added to the wells in triplicate and incubated for 1 hour at 25° C. The plates were washed as described above.
# (§13) 100 μL/well of secondary horseradish peroxidase (HRP)-conjugated antibody in PBST was added to each well and incubated for 1 hour (hr) at 25° C. […]
# [2] = test system: D93 binding to human denatured-collagen IV; assay: Competition ELISA: synthetic peptides blocking D93 binding to heat denatured collagen IV; settings: average of two studies, vs 1% BSA/PBS alone
# Method: as §1, §2, §3, §4, §5, §6, §7, §8, §9, §10, §11, §12, §13
# [3] = peptide inhibitor concentration 10 μM
# [4] = peptide inhibitor concentration 100 μM
# [5] = peptide inhibitor concentration 1000 μM
# [6] = peptide inhibitor concentration 1 μM
# [7] = peptide inhibitor concentration 10 μM, listed as 2 (18), 10 µM
# [8] = peptide inhibitor concentration 100 μM, listed as 2 (18), 100 µM
# [9] = peptide inhibitor concentration 1000 μM, listed as 2 (18), 1000 µM
# [10] = peptide inhibitor concentration 10 μM, listed as 11 (19), 10 µM
# [11] = peptide inhibitor concentration 100 μM, listed as 11 (19), 100 µM
# [12] = peptide inhibitor concentration 1000 μM, listed as 11 (19), 1000 µM
"% INHIBITION OF BINDING OF HUI77 TO DENATURED COLLAGEN IV [1, 3] [%]","% INHIBITION OF BINDING OF HUI77 TO DENATURED COLLAGEN IV [1, 4] [%]","% INHIBITION OF BINDING OF HUI77 TO DENATURED COLLAGEN IV [1, 5] [%]","% INHIBITION OF BINDING OF D93 TO HUMAN DENATURED-COLLAGEN IV [2, 6] [%]","% INHIBITION OF BINDING OF D93 TO HUMAN DENATURED-COLLAGEN IV [2, 3] [%]","% INHIBITION OF BINDING OF D93 TO HUMAN DENATURED-COLLAGEN IV [2, 4] [%]","% INHIBITION OF BINDING OF D93 TO HUMAN DENATURED-COLLAGEN IV [2, 5] [%]",Substance,also measured
10,14,73,12,41.5,89,92.5,LPGPPGPPGP (LPGP[Hyp]GP[Hyp]GP) [SEQ ID NO: 20],–
–,–,–,–,–,–,–,LPGPPGPPGPY [SEQ ID NO: 18],"% INHIBITION OF BINDING OF HUI77 TO DENATURED COLLAGEN IV [1, 7]: 5.5%; % INHIBITION OF BINDING OF HUI77 TO DENATURED COLLAGEN IV [1, 8]: 6.5%; % INHIBITION OF BINDING OF HUI77 TO DENATURED COLLAGEN IV [1, 9]: 4.5%; % INHIBITION OF BINDING OF D93 TO HUMAN DENATURED-COLLAGEN IV ([2]; peptide inhibitor concentration 1 μM, listed as 2 (18), 1 µM): 6%; % INHIBITION OF BINDING OF D93 TO HUMAN DENATURED-COLLAGEN IV [2, 7]: 2%; % INHIBITION OF BINDING OF D93 TO HUMAN DENATURED-COLLAGEN IV [2, 8]: 7%; % INHIBITION OF BINDING OF D93 TO HUMAN DENATURED-COLLAGEN IV [2, 9]: 46%"
–,–,–,–,–,–,–,LPGPPGPPGPY [SEQ ID NO: 19],"% INHIBITION OF BINDING OF HUI77 TO DENATURED COLLAGEN IV [1, 10]: 6.5%; % INHIBITION OF BINDING OF HUI77 TO DENATURED COLLAGEN IV [1, 11]: 18.5%; % INHIBITION OF BINDING OF HUI77 TO DENATURED COLLAGEN IV [1, 12]: 87%; % INHIBITION OF BINDING OF D93 TO HUMAN DENATURED-COLLAGEN IV ([2]; peptide inhibitor concentration 1 μM, listed as 11 (19), 1 µM): 32%; % INHIBITION OF BINDING OF D93 TO HUMAN DENATURED-COLLAGEN IV [2, 10]: 83%; % INHIBITION OF BINDING OF D93 TO HUMAN DENATURED-COLLAGEN IV [2, 11]: 93.5%; % INHIBITION OF BINDING OF D93 TO HUMAN DENATURED-COLLAGEN IV [2, 12]: 93.5%"
8,10.5,8.5,9.5,3.5,2.5,13.5,LPGSPG (L[Hyp]GS[Hyp]G) [SEQ ID NO: 26],–
3.5,4.5,6,7,2,4.5,24,LPGTPG (L[Hyp]GT[Hyp]G) [SEQ ID NO: 27],–
8,10.5,10,11,6,4,11.5,PGAKGLPGP ([Hyp]GAKGLPGP) [SEQ ID NO: 17],–
